Laboratory results published in BindingDB's records for patent US9487490 (Merck Sharp & Dohme Corp, 2016).

Target: T1, Isoform 2 of Nuclear receptor ROR-gamma (RORgT) (Homo sapiens, UniProt P51449)
T1 sequence (P51449 whole entry): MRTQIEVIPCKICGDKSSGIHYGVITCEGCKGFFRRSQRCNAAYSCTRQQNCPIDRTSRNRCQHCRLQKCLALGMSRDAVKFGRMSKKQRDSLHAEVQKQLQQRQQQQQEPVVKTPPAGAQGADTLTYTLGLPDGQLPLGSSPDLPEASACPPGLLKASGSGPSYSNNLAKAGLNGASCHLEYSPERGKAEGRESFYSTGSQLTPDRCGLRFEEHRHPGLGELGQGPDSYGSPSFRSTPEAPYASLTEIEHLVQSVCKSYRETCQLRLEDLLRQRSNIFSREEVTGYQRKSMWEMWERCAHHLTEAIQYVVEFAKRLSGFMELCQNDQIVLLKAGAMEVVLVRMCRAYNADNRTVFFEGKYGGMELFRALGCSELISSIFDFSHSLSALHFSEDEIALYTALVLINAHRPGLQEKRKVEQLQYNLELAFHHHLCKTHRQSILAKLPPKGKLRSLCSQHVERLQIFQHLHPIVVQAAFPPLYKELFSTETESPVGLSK
Experiment: TR-FRET Assay
Settings: pH 7; 4 °C
Protocol: To identify novel antagonists of RORgammaT, an assay was developed which employs the interaction of RORgammaT with its co-activator peptide SRC1_2. […] The RORγ-LBD protein was purified by glutathione sepharose chromatography. […] The mixture was then diluted in assay buffer (50 mM Tris pH 7.0, 50 mM KCl, 1 mM EDTA, 0.1 mM DTT) to obtain RORγ-LBD final concentration of 3 nM in 384-well assay plate. Compounds to be tested were injected to the assay plate using Acoustic Droplet Ejection technology by Echo 550 liquid handler (Labcyte, Calif.).

IC50: 5 nM
Structure (SMILES): CC1CC(c2nn(C(=O)c3c(Cl)cccc3C(F)(F)F)c3cccc(F)c23)=CC(O)C1C(=O)O (stereo unspecified) [US9487490, 6C]
